The text below walks through data of US10766857B2, “Compound having BLT inhibitory activity and composition, for preventing or treating inflammatory diseases, comprising same as active ingredient” (DONGGUK UNIVERSITY INDUSTRY-ACADEMIC COOPERATION FOUNDATION, priority 2015, dated 2020).

The target of assay [1] is T1, BLT2-expressing cells (CHO-BLT2 cells) (Homo sapiens, UniProt Q9NPC1).
T1 construct: HA; expressed in transfected cells
T1 sequence (Q9NPC1 with tags, fused parts or gaps): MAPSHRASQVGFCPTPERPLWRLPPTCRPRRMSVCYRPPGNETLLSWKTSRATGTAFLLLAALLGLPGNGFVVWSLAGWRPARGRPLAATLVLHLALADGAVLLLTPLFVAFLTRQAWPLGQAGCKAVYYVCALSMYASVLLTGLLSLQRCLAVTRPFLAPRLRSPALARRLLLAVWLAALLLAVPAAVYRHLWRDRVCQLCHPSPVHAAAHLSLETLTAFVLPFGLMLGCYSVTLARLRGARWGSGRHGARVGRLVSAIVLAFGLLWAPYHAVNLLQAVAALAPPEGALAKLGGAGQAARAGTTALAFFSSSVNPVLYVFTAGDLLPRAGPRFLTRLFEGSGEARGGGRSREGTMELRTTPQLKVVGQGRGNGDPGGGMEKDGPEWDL
Put plainly: MTT cell growth of LTB4-stimulated BLT2-expressing cells. Type of assay: cell-based. As to conditions: pre-treated at 10 μM, LTB4 300 nM. How it is done:
Cell viability according to treatment of the compounds prepared in the examples were measured by a 3-(4,5-dimethylthiazol-2-yl)-2,5-diphenyltetrazolium bromide (MTT) method.
More specifically, 1×10^4 each of the BLT2-nonexpressing cells (CHO-pcDNA3.1 cells) and BLT2-expressing cells (CHO-BLT2 cells), which were prepared in Experimental Example 1, were dispensed in a […], and cultured for 24 hours. Afterward, the culture medium was removed, a serum-free RPMI medium was added, and after two hours, the cells were pre-treated with each of the compound prepared in one of the examples (10 μM), 10 μM DMSO (compound solvent) as a control, and 10 μM 1-[5-ethyl-2-hydroxy-4-[[6-methyl-6-(1H-tetrazol-5-yl)heptyl]oxy]phenyl]-ethanone (LY255283; Cayman) as a positive control for 1 hour. Subsequently, after treatment of LTB4 (300 nM), the cells were cultured for 24 hours. 20 μL of an MTT solution (5 mg/mL, Sigma-Aldrich) was added to each well, the cells were cultured in a humid CO2 incubator at 37° C. for 4 hours, a supernatant was removed, and 200 μL of DMSO was added to each well to dissolve insoluble violet formazan crystals. Absorbance was measured using a microplate reader (Molecular Devices, Sunnyvale, Calif.) at 550 nm, and the measurement was repeated three times.

In a further assay the target is T2, BLT2 (Homo sapiens, UniProt Q9NPC1).
T2 construct: HA; expressed in transfected cells
T2 sequence (Q9NPC1 with tags, fused parts or gaps): T1 sequence (Q9NPC1 with tags, fused parts or gaps)
Nature of the assay: [3H]LTB4 and BLT2 binding inhibition, CHO-BLT2 cell membrane proteins. The following applies: [3H]LTB4 5 nM.

Assay [2] concerns MDA-MB-231 cells. Put plainly: Intracellular ROS generation (DCF fluorescence). In kind it is cell-based. The following applies: 30 minutes treatment. How it is done:
(§1) The breast cancer cells such as the MDA-MB-231 cells were obtained from Korean Cell Line Bank (Seoul, Korea), and the MDA-MB-435 cells were provided by J. H. Lee (Asan Medical Center, Seoul, Korea). These cells were cultured in an RPMI 1640 medium (Invitrogen) containing 10% FBS (Life Technologies, Inc.), 1% penicillin (50 units/mL), and an antibiotic antimycotic solution (Life Technologies, Inc.) at 37° C. under a 5% CO2 condition.
(§2) Intracellular ROS (H2O2) generated according to the treatment of the compound of the present invention (LMT-696) was measured as a function of DCF fluorescence. Specifically, before ROS measurement, 2×10^5 cells were grown in 60-mm wells, and cultured in a FBS-supplemented RPMI 1640 medium for 24 hours. To evaluate the effect of the compound of the present invention, the cells were treated with the compound (LMT-696) for 30 minutes. To measure the intracellular ROS, the cells were cultured with 20 μM of a H2O2-sensitive fluorescent material such as H2DCFDA [Molecular Probes (Eugene, Oreg.)] at 37° C. in a dark and humidified CO2 incubator for 20 minutes. […] A DCF fluorescent degree was measured with excitation and emission wavelengths at 488 and 530 nm, respectively, using a FACS Calibur flow cytometer (Becton Dickinson, N.J.).

Assay [3] has as its system MDA-MB-435 cells. Nature of the assay: Intracellular ROS generation (DCF fluorescence). As to conditions: 30 minutes treatment. In kind it is cell-based. How it is done:
as §1, §2

Assay [4] deals with MDA-MB-231 cells. Put plainly: Matrigel invasion of breast cancer cells. In kind it is cell-based. Here is the method:
as §1
(§3) To detect the invasion of breast cancer cells according to the treatment of the compound of the present invention, BioCoat Matrigel Invasion Chambers (BD Biosciences, Bedford, Mass.) were used. 5×10^4 of the breast cancer cells were harvested with trypsin-EDTA, resuspended in 0.5% serum-containing RPMI 1640, and transferred to Matrigel inserts. Five percent serum-containing RPMI 1640 was added to the lower chamber, and the cells were cultured at 37° C. for 36 hours. Each filter was fixed with methanol for 3 minutes, and stained with hematoxylin and eosin for 10 minutes. The invasiveness of the cancer cells was quantified by cell counts on the lower side of the filter under an optical microscope (magnification, 200×). In each analysis, 6 fields were quantified. Each sample was analyzed twice, and the analysis was repeated three times.

The test system of assay [5] is MDA-MB-435 cells. Put plainly: Matrigel invasion of breast cancer cells. Type of assay: cell-based. How it is done:
as §1, §3

Assay [6] concerns cancer cells (MDA-MB-231). Nature of the assay: Metastasis of breast cancer cells in nude mice. In kind it is in vivo. The following applies: MDA-MB-231 in nude mice, i.p.; LMT-696 and LY255283 2.5 mg/kg, U75302 0.25 mg/kg; 15 weeks. Here is the method:
An experiment for the metastasis of breast cancer cells according to the treatment of the compound of the present invention was approved by the Ethics Committee of Korea University, and all experimental animals used in this experiment were treated according to the approved guidelines of the Korea University Animal Care and Use Committee. Six-week-old female nude mice (Charles River, Wilmington, Mass.) were injected with cancer cells to confirm cancer cell metastasis. The breast cancer cells were pre-treated with the compound of the present invention (LMT-696, 10 μM), LY255283, U75302 and DMSO, and 24 hours later, harvested with trypsin-EDTA, resuspended in PBS, and then 2×10^6 of the breast cancer cells were intraperitoneally injected into mice anesthetized with zoletil (50 mg/kg). After five days, the compound of the present invention (LMT-696; 2.5 mg/kg), LY255283 (2.5 mg/kg), U75302 (0.25 mg/kg) and DMSO were injected intraperitoneally three times every five days. At 15 weeks after the injection of the breast cancer cells, the mice were dissected to observe the cancer cell metastasis.

Regarding `CCCCC(=O)N(CC#Cc1ccc(C(=O)N2CCN(C(C)C)CC2)cc1)c1ccccc1` [LMT-696, N-(3-(4-(4-isopropylpiperazine-1-carbonyl)phenyl)prop-2-ynyl)-N-phenylpentaneamide], the “cell growth compared with the control DMSO” value in assay [1] is listed as 56.6%. Further, the half-maximal inhibitory concentration (IC50) on BLT2 was determined as 5.6 nM. The “inhibition of ROS generation” value with MDA-MB-231 cells [2] and with MDA-MB-435 cells [3] was “significant inhibition” each time. The “cancer cell invasion inhibited” value in the assay on MDA-MB-231 cells [4] was 70%; with MDA-MB-435 cells [5] it was 56%. Also, the “metastasis of the cancer cells inhibited as compared with the control” value in assay [6] came to 40%.
